Reference: patent US8163793B2, “Proline derivatives” (Hoffman-La Roche Inc., priority 2009, dated 2012)

Key:
Cat L = Cat L (UniProt P07711); assay: Cathepsin enzyme inhibition assay (fluorogenic peptide substrate Z-Val-Val-Arg-AMC), Cathepsin L; type: biochemical, human and mouse; conditions: enzyme 1 nM, substrate 20 μM, pH 6.5; read-out: CatL IC50
Protocol: (§1) Cathepsin Enzyme Inhibition Assay
(§2) Enzyme activity is measured by observing the increase in fluorescence intensity caused by cleavage of a peptide substrate containing a fluorophore whose emission is quenched in the intact peptide.
(§3) Assay buffer: 100 mM potassium phosphate pH 6.5, EDTA-Na 5 mM, Triton X-100 0.001%, DDT 5 mM.
(§4) Enzymes (all at 1 nM): human and mouse Cathepsin S, Cat K, Cat B, Cat L Substrate (20 μM): Z-Val-Val-Arg-AMC, except for Cat K which uses Z-Leu-Arg-AMC (both from Bachem).
(§5) AMC=7-Amino-4-Methyl-Coumarin.
Excitation 360 nm, Emission 465 nm.
Enzyme is added to the substance dilutions in 96-well microtitre plates and the reaction is started with substrate. Fluorescence emission is measured over 20 minutes, during which time a linear increase is observed in the absence of inhibitor. IC50 are calculated by standard methods. The results are expressed in μM in the following table.

Cathepsin S = Cathepsin S (UniProt P25774); assay: Cathepsin enzyme inhibition assay (fluorogenic peptide substrate Z-Val-Val-Arg-AMC), Cathepsin S; type: biochemical, human and mouse; conditions: enzyme 1 nM, substrate 20 μM, pH 6.5; read-out: CatS IC50
Protocol: as §1, §2, §3, §4, §5
Enzyme is added to the substance dilutions in 96-well microtitre plates and the reaction is started with substrate. […] IC50 are calculated by standard methods. The results are expressed in μM in the following table.

SMILES	IC50 (Cat L)	IC50 (Cathepsin S)
N#CC1(NC(=O)[C@@H]2C[C@@H](S(=O)(=O)c3ccc(-c4ccnc(Cl)c4)cc3C(F)(F)F)CN2C(=O)C2(C(F)(F)F)CC2)CC1 [Example 245, (2S,4R)-4-[4-(2-Chloro-pyridin-4-yl)-2-trifluoromethyl-benzenesulfonyl]-1-(1-trifluoromethyl-cyclopropanecarbonyl)-pyrrolidine-2-carboxylic acid (1-cyano-cyclopropyl)-amide]	39200 nM	0.168 nM
N#CC1(NC(=O)[C@@H]2C[C@@H](S(=O)(=O)c3ccc(N4CCN(C5CC5)CC4)cc3Cl)CN2C(=O)C2(C(F)(F)F)CC2)CC1 [Example 298, (2S,4R)-4-[2-Chloro-4-(4-cyclopropyl-piperazin-1-yl)-benzenesulfonyl]-1-(1-trifluoromethyl-cyclopropanecarbonyl)-pyrrolidine-2-carboxylic acid (1-cyano-cyclopropyl)-amide]	1580 nM	0.22 nM
Cc1ccc(C(=O)N2C[C@H](S(=O)(=O)c3ccccc3C(F)(F)F)C[C@H]2C(=O)NCC#N)cc1 [Example 66, (2S,4R)-1-(4-Methyl-benzoyl)-4-(2-trifluoromethyl-benzenesulfonyl)-pyrrolidine-2-carboxylic acid cyanomethyl-amide]	≥ 25000 nM	0.6 nM
CC(C)(C)OC(=O)NC1(C(=O)N2C[C@H](S(=O)(=O)c3ccc(OCC(F)(F)F)cc3Cl)C[C@H]2C(=O)NC2(C#N)CC2)CC1 [Example 242, {1-[(2S,4R)-4-[2-Chloro-4-(2,2,2-trifluoro-ethoxy)-benzenesulfonyl]-2-(1-cyano-cyclopropylcarbamoyl)-pyrrolidine-1-carbonyl]-cyclopropyl}-carbamic Acid Tert-butyl ester]	1430 nM	4.75 nM
C[C@H](Oc1ccc(S(=O)(=O)[C@@H]2C[C@@H](C(=O)NC3(C#N)CC3)N(C(=O)C3CC3)C2)c(Cl)c1)C(F)(F)F [Example 197, (2S,4R)-4-[2-Chloro-4-((S)-2,2,2-trifluoro-1-methyl-ethoxy)-benzenesulfonyl]-1-cyclopropanecarbonyl-pyrrolidine-2-carboxylic acid (1-cyano-cyclopropyl)-amide]	19000 nM	0.9 nM
N#CC1(NC(=O)[C@@H]2C[C@@H](S(=O)(=O)c3ccccc3Cl)CN2C(=O)[C@H](O)c2ccc(Cl)cc2)CC1 [Example 411, (2S,4R)-4-(2-Chloro-benzenesulfonyl)-1-[(R)-2-(4-chloro-phenyl)-2-hydroxy-acetyl]-pyrrolidine-2-carboxylic acid (1-cyano-cyclopropyl)-amide]	550 nM	0.525 nM
Cc1cc(N2C[C@H](S(=O)(=O)c3ccccc3C(F)(F)F)C[C@H]2C(=O)NC2(C#N)CC2)n(C2CCC2)n1 [Example 322, (2S,4R)-1-(2-Cyclobutyl-5-methyl-2H-pyrazol-3-yl)-4-(2-trifluoromethyl-benzenesulfonyl)-pyrrolidine-2-carboxylic acid (1-cyano-cyclopropyl)-amide]	28500 nM	0.3 nM
N#CC1(NC(=O)[C@@H]2C[C@@H](S(=O)(=O)c3ccccc3Cl)CN2C(=O)C(F)(F)F)CC1 [Example 80, (2S,4R)-4-(2-Chloro-benzenesulfonyl)-1-(2,2,2-trifluoro-acetyl)-pyrrolidine-2-carboxylic acid (1-cyano-cyclopropyl)-amide]	9770 nM	0.8 nM
N#CCNC(=O)[C@@H]1C[C@@H](S(=O)(=O)c2ccccc2C(F)(F)F)CN1C(=O)c1ccc(F)cc1 [Example 65, (2S,4R)-1-(4-Fluoro-benzoyl)-4-(2-trifluoromethyl-benzenesulfonyl)-pyrrolidine-2-carboxylic acid cyanomethyl-amide]	≥ 25000 nM	0.6 nM
Cc1cc(N2C[C@H](S(=O)(=O)c3ccccc3C(F)(F)F)C[C@H]2C(=O)NC2(C#N)CC2)n(-c2ccnc3ccccc23)n1 [Example 352, (2S,4R)-1-(5-Methyl-2-quinolin-4-yl-2H-pyrazol-3-yl)-4-(2-trifluoromethyl-benzenesulfonyl)-pyrrolidine-2-carboxylic acid (1-cyano-cyclopropyl)-amide]	7230 nM	0.25 nM
N#CC1(NC(=O)[C@@H]2C[C@@H](S(=O)(=O)c3ccc(OCC(F)(F)F)cc3Cl)CN2C(=O)C2(c3ccccc3)CCOCC2)CC1 [Example 287, (2S,4R)-4-[2-Chloro-4-(2,2,2-trifluoro-ethoxy)-benzenesulfonyl]-1-(4-phenyl-tetrahydro-pyran-4-carbonyl)-pyrrolidine-2-carboxylic acid (1-cyano-cyclopropyl)-amide]	3170 nM	0.175 nM
CC(C)(C)C(=O)N1C[C@H](S(=O)(=O)c2ccc(OCC(F)(F)F)cc2C(F)(F)F)C[C@H]1C(=O)NC1(C#N)CC1 [Example 212, (2S,4R)-1-(2,2-Dimethyl-propionyl)-4-[4-(2,2,2-trifluoro-ethoxy)-2-trifluoromethyl-benzenesulfonyl]-pyrrolidine-2-carboxylic acid (1-cyano-cyclopropyl)-amide]	≥ 25000 nM	0.3 nM
CN1CCN(c2ccc(S(=O)(=O)[C@@H]3C[C@@H](C(=O)NC4(C#N)CC4)N(C(=O)C4(c5ccc(Cl)nc5)CC4)C3)c(Cl)c2)CC1 [Example 369, (2S,4R)-4-[2-Chloro-4-(4-methyl-piperazin-1-yl)-benzenesulfonyl]-1-[1-(6-chloro-pyridin-3-yl)-cyclopropanecarbonyl]-pyrrolidine-2-carboxylic acid (1-cyano-cyclopropyl)-amide; Compound with Formic Acid]	26.3 nM	0.07 nM
N#CC1(NC(=O)[C@@H]2C[C@@H](S(=O)(=O)c3ccccc3Cl)CN2CC(F)F)CC1 [Example 88, (2S,4R)-4-(2-Chloro-benzenesulfonyl)-1-(2,2-difluoro-ethyl)-pyrrolidine-2-carboxylic acid (1-cyano-cyclopropyl)-amide]	≥ 25000 nM	275 nM
N#CCNC(=O)[C@@H]1C[C@@H](S(=O)(=O)c2ccccc2)CN1Cc1ccccc1 [Example 54, (2S,4R)-4-Benzenesulfonyl-1-benzyl-pyrrolidine-2-carboxylic acid cyanomethyl-amide]	5340 nM	210 nM
N#CC1(NC(=O)[C@@H]2C[C@@H](S(=O)(=O)c3ccccc3C(F)(F)F)CN2CC(F)(F)C(F)(F)F)CC1 [Example 109, (2S,4R)-1-(2,2,3,3,3-Pentafluoro-propyl)-4-(2-trifluoromethyl-benzenesulfonyl)-pyrrolidine-2-carboxylic acid (1-cyano-cyclopropyl)-amide]	≥ 25000 nM	12.7 nM
N#CCNC(=O)[C@@H]1C[C@@H](S(=O)(=O)c2ccccc2C(F)(F)F)CN1c1ccccc1 [Example 151, (2S,4R)-1-Phenyl-4-(2-trifluoromethyl-benzenesulfonyl)-pyrrolidine-2-carboxylic acid cyanomethyl-amide]	≥ 25000 nM	–
N#CC1(NC(=O)[C@@H]2C[C@@H](S(=O)(=O)c3ccccc3C(F)(F)F)CN2c2ncccn2)CC1 [Example 408, (2S,4R)-1-Pyrimidin-2-yl-4-(2-trifluoromethyl-benzenesulfonyl)-pyrrolidine-2-carboxylic acid (1-cyano-cyclopropyl)-amide]	≥ 25000 nM	–
N#CC1(NC(=O)[C@@H]2C[C@@H](S(=O)(=O)c3ccccc3C(F)(F)F)CN2c2ccnc(C(F)(F)F)n2)CC1 [Example 185, (2S,4R)-4-(2-Trifluoromethyl-benzenesulfonyl)-1-(2-trifluoromethyl-pyrimidin-4-yl)-pyrrolidine-2-carboxylic acid (1-cyano-cyclopropyl)-amide]	≥ 25000 nM	–
N#CC1(NC(=O)[C@@H]2C[C@@H](S(=O)(=O)c3ccccc3C(F)(F)F)CN2c2ncccc2C(F)(F)F)CC1 [Example 186, (2S,4R)-4-(2-Trifluoromethyl-benzenesulfonyl)-1-(3-trifluoromethyl-pyridin-2-yl)-pyrrolidine-2-carboxylic acid (1-cyano-cyclopropyl)-amide]	≥ 25000 nM	–
N#CC1(NC(=O)[C@H]2C[C@@H](S(=O)(=O)c3ccccc3C(F)(F)F)CN2c2ncccc2C(F)(F)F)CC1 [Example 187, (2R,4R)-4-(2-Trifluoromethyl-benzenesulfonyl)-1-(3-trifluoromethyl-pyridin-2-yl)-pyrrolidine-2-carboxylic acid (1-cyano-cyclopropyl)-amide]	≥ 25000 nM	–
N#CC1(NC(=O)[C@@H]2C[C@@H](S(=O)(=O)c3ccccc3C(F)(F)F)CN2c2ccccc2)CC1 [Example 119, (2S,4R)-1-Phenyl-4-(2-trifluoromethyl-benzenesulfonyl)-pyrrolidine-2-carboxylic acid (1-cyano-cyclopropyl)-amide]	≥ 25000 nM	–
N#CC1(NC(=O)[C@@H]2C[C@@H](S(=O)(=O)c3ccc(-n4cccn4)cc3Cl)CN2C(=O)C2(c3ccc(Cl)cc3)CC2)CC1 [Example 327, (2S,4R)-1-[1-(4-Chloro-phenyl)-cyclopropanecarbonyl]-4-(2-chloro-4-pyrazol-1-yl-benzenesulfonyl)-pyrrolidine-2-carboxylic acid (1-cyano-cyclopropyl)-amide]	–	0.175 nM
CC(C)(C)OC(=O)N1C[C@H](S(=O)(=O)c2c(Cl)cccc2Cl)C[C@H]1C(=O)NC1(C#N)CC1 [Example 47, (2S,4R)-2-(1-Cyano-cyclopropylcarbamoyl)-4-(2,6-dichloro-benzenesulfonyl)-pyrrolidine-1-carboxylic acid tert-butyl ester]	–	1.4 nM
